These results are taken from patent publication US10076519B2 (CYTOKINETICS, INC., priority 2010, dated 2018).

The test system of one assay is rabbit skeletal myofibrils (fast skeletal myofibrils). Kind of assay: Activation of fast skeletal myofibrils (PUMA assay, PK/LDH-coupled ATPase at pCa25). The conditions noted are these: median AC1.4 class, procedure of Example 39. The assay is classed as biochemical. The method, boiled down: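 Detergent-washed rabbit psoas myofibrils (~90% fast fibres, calcium-regulated) assayed at calcium giving 25% of maximal ATPase rate (pCa25). ADP turnover coupled via pyruvate kinase/lactate dehydrogenase to NADH oxidation, read at 340 nm. Buffer 12 mM PIPES, 2 mM MgCl2, 1 mM DTT, pH 6.8; AC1.4 values derived.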
Consider `O=C(NC1CCNC1)c1cnc(-c2ccc(NCC3(c4ncccc4F)CCC3)nn2)s1` (stereo not shown) [{2-[6-({[(3-fluoro(2-pyridyl))cyclobutyl]methyl}ami-no)pyridazin-3-yl](1,3-thiazol-5-yl)}-N-pyrrolidin-3-ylcarboxamide], for which the “Mean AC1.4” value is recorded as “A (A=<1 uM)”. On the same count and under the same terms, the result for `OCc1cnc(-c2ccc(NCC3(c4ncccc4F)CCC3)nn2)s1` [{2-[6-({[(3-fluoro-2-pyridyl)cyclobutyl]methyl}ami-no)pyridazin-3-yl]-1,3-thiazol-5-yl}methan-1-ol] reads “B (B=1-10 uM)”.

Regarding `CC(C)(Nc1ccc(-c2cccc(NS(C)(=O)=O)c2)nn1)c1cccc(OC(F)F)n1` [{3-[6-({1-[6-(difluoromethoxy)(2-pyridyl)]-isopropyl}amino)pyridazin-3-yl]phenyl}(methylsulfonyl)amine], the “Mean AC1.4” value is “A (A=<1 uM)”. Still for that read-out and setting: with `CS(=O)(=O)Nc1nccc(-c2ccc(NCC3(c4ncccc4F)CCC3)nn2)n1` [{4-[6-({[(3-fluoro(2-pyridyl))cyclobutyl]methyl}ami-no)pyridazin-3-yl]pyrimidin-2-yl}(methylsulfonyl)amine] the entry was “D (D=>20 uM)”.

As for `CC(C)NC(=O)c1ccc(F)c(-c2ccc(NC[C@]3(c4ncccc4F)C[C@H](F)C3)nn2)c1` [{4-fluoro-3-[6-({[3-fluoro-1-(3-fluoro(2-pyridyl))cyclobutyl]methyl}ami-no)pyridazin-3-yl]phenyl}-N-(methylethyl)carboxamide], the “Mean AC1.4” value is given as “A (A=<1 uM)”. As for `CNC(=O)c1ccc(F)c(-c2ccc(NC[C@]3(c4ncccc4F)C[C@H](F)C3)nn2)c1` [{4-fluoro-3-[6-({[3-fluoro-1-(3-fluoro(2-pyridyl))cyclobutyl]methyl}ami-no)pyridazin-3-yl]phenyl}-N-methylcarboxamide], the “Mean AC1.4” value is recorded as “A (A=<1 uM)”.

As for `CS(=O)(=O)Nc1n[nH]c2ccc(-c3ccc(NC[C@]4(c5ncccc5F)C[C@H](F)C4)nn3)cc12` [{5-[6-({[3-fluoro-1-(3-fluoro(2-pyridyl))cyclobutyl]methyl}ami-no)pyridazin-3-yl](1H-indazol-3-yl)}(methylsulfonyl)amine], the “Mean AC1.4” value is “A (A=<1 uM)”.

Staying with this assay, now noted: median AC1.4 reported as class; procedure of Example 39.
As to `Cc1cc(NCC2(c3ncccc3F)CCC2)nnc1-c1ncc(CO)s1` [{2-[6-({[(3-fluoro(2-pyridyl))cyclobutyl]methyl}amino)-4-methylpyridazin-3-yl]-1,3-thiazol-5-yl}methan-1-ol], the “Mean AC1.4” value is listed as “B (B=1-10 uM)”. The same measure, in the same setting: the result for `CNC(=O)c1cc(-c2ccc(NC[C@]3(c4ncccc4F)C[C@H](F)C3)nn2)ccc1F` [{2-fluoro-5-[6-({[3-fluoro-1-(3-fluoro(2-pyridyl))cyclobutyl]methyl}ami-no)pyridazin-3-yl]phenyl}-N-methylcarboxamide] reads “C (C=10-20 uM)”; that for `CNC(=O)c1cc(C)cc(-c2ccc(NC[C@]3(c4ncccc4F)C[C@H](F)C3)nn2)c1O` [{3-[6-({[3-fluoro-1-(3-fluoro(2-pyridyl))cyclobutyl]methyl}ami-no)pyridazin-3-yl]-2-hydroxy-5-methylphenyl}-N-methylcarboxamide], “B (B=1-10 uM)”.

As for `CNC(=O)c1cccc(-c2ccc(NC[C@]3(c4ncccc4F)C[C@H](F)C3)nn2)c1O` [{3-[6-({[3-fluoro-1-(3-fluoro(2-pyridyl))cyclobutyl]methyl}ami-no)pyridazin-3-yl]-2-hydroxyphenyl}-N-methylcarboxamide], the “Mean AC1.4” value is recorded as “A (A=<1 uM)”. As for `CNC(=O)c1ccc(O)c(-c2ccc(NC[C@]3(c4ncccc4F)C[C@H](F)C3)nn2)c1` [{3-[6-({[3-fluoro-1-(3-fluoro(2-pyridyl))cyclobutyl]methyl}ami-no)pyridazin-3-yl]-4-hydroxyphenyl}-N-methylcarboxamide], the “Mean AC1.4” value is recorded as “B (B=1-10 uM)”. As to `CNC(=O)c1cc(C)cc(-c2ccc(NC[C@]3(c4ncccc4F)C[C@H](F)C3)nn2)c1` [{3-[6-({[3-fluoro-1-(3-fluoro(2-pyridyl))cyclobutyl]methyl}ami-no)pyridazin-3-yl]-5-methylphenyl}-N-methylcarboxamide], the “Mean AC1.4” value was “B (B=1-10 uM)”. On to `CN1CC(NC(=O)c2cccc(-c3ccc(NC[C@]4(c5ncccc5F)C[C@H](F)C4)nn3)c2)C1` [{3-[6-({[3-fluoro-1-(3-fluoro(2-pyridyl))cyclobutyl]methyl}ami-no)pyridazin-3-yl]phenyl}-N-(1-methylazetidin-3-yl)carboxamide], for which the “Mean AC1.4” value is reported as “B (B=1-10 uM)”.

Regarding `CC(C)(O)CNC(=O)c1cccc(-c2ccc(NC[C@]3(c4ncccc4F)C[C@H](F)C3)nn2)c1` [{3-[6-({[3-fluoro-1-(3-fluoro(2-pyridyl))cyclobutyl]methyl}ami-no)pyridazin-3-yl]phenyl}-N-(2-hydroxy-2-methylpropyl)carboxamide], the “Mean AC1.4” value is reported as “B (B=1-10 uM)”.

In the case of `CC1(O)CC(NC(=O)c2cccc(-c3ccc(NC[C@]4(c5ncccc5F)C[C@H](F)C4)nn3)c2)C1` (stereo partly shown) [{3-[6-({[3-fluoro-1-(3-fluoro(2-pyridyl))cyclobutyl]methyl}ami-no)pyridazin-3-yl]phenyl}-N-(3-hydroxy-3-methylcyclobutyl)carboxamide], the “Mean AC1.4” value is “B (B=1-10 uM)”.

For `O=C(NC1CC(O)C1)c1cccc(-c2ccc(NC[C@]3(c4ncccc4F)C[C@H](F)C3)nn2)c1` (stereo partly shown) [{3-[6-({[3-fluoro-1-(3-fluoro(2-pyridyl))cyclobutyl]methyl}ami-no)pyridazin-3-yl]phenyl}-N-(3-hydroxycyclobutyl)carboxamide], the “Mean AC1.4” value was “B (B=1-10 uM)”. Consider `CS(=O)(=O)N1CC(NC(=O)c2cccc(-c3ccc(NC[C@]4(c5ncccc5F)C[C@H](F)C4)nn3)c2)C1` [{3-[6-({[3-fluoro-1-(3-fluoro(2-pyridyl))cyclobutyl]methyl}ami-no)pyridazin-3-yl]phenyl}-N-[1-(methylsulfonyl)azetidin-3-yl]carboxamide], for which the “Mean AC1.4” value is listed as “B (B=1-10 uM)”. With `O=C(NC(CO)CO)c1cccc(-c2ccc(NC[C@]3(c4ncccc4F)C[C@H](F)C3)nn2)c1` [{3-[6-({[3-fluoro-1-(3-fluoro(2-pyridyl))cyclobutyl]methyl}ami-no)pyridazin-3-yl]phenyl}-N-[2-hydroxy-1-(hydroxymethyl)ethyl]carboxamide], the “Mean AC1.4” value is given as “B (B=1-10 uM)”. As to `O=C(NCC1(O)CC1)c1cccc(-c2ccc(NC[C@]3(c4ncccc4F)C[C@H](F)C3)nn2)c1` [{3-[6-({[3-fluoro-1-(3-fluoro(2-pyridyl))cyclobutyl]methyl}ami-no)pyridazin-3-yl]phenyl}-N-[(hydroxycyclopropyl)methyl]car-boxamide], the “Mean AC1.4” value is reported as “A (A=<1 uM)”. Turning to `CNC(=O)c1cccc(-c2ccc(NC[C@]3(c4ncccc4F)C[C@H](F)C3)nn2)c1` [{3-[6-({[3-fluoro-1-(3-fluoro(2-pyridyl))cyclobutyl]methyl}ami-no)pyridazin-3-yl]phenyl}-N-methylcarboxamide], the “Mean AC1.4” value was “A (A=<1 uM)”. `O=C(NC1COC1)c1cccc(-c2ccc(NC[C@]3(c4ncccc4F)C[C@H](F)C3)nn2)c1` [{3-[6-({[3-fluoro-1-(3-fluoro(2-pyridyl))cyclobutyl]methyl}ami-no)pyridazin-3-yl]phenyl}-N-oxetan-3-ylcarboxamide]: the “Mean AC1.4” value is “B (B=1-10 uM)”.

As for `OCc1cccc(-c2ccc(NC[C@]3(c4ncccc4F)C[C@H](F)C3)nn2)c1` [{3-[6-({[3-fluoro-1-(3-fluoro(2-pyridyl))cyclobutyl]methyl}ami-no)pyridazin-3-yl]phenyl}methan-1-ol], the “Mean AC1.4” value was “B (B=1-10 uM)”. Regarding `CNC(=O)c1cccc(-c2ccc(NCC3(c4ncccc4F)CCC3)nn2)c1` [{3-[6-({[(3-fluoro(2-pyridyl))cyclobutyl]methyl}ami-no)pyridazin-3-yl]phenyl}-N-methylcarboxamide], the “Mean AC1.4” value was “B (B=1-10 uM)”. Turning to `CNC(=O)c1ccc(O)c(-c2ccc(NCC3(c4ncccc4F)CCC3)nn2)c1` [{3-[6-({[(3-fluoro(2-pyridyl))cyclobutyl]methyl}amino)pyr-idazin-3-yl]-4-hydroxyphenyl}-N-methylcarboxamide], the “Mean AC1.4” value is “B (B=1-10 uM)”. In the case of `CN(C)C(=O)c1ccc(F)c(-c2ccc(NC[C@]3(c4ncccc4F)C[C@H](F)C3)nn2)c1` [{4-fluoro-3-[6-({[3-fluoro-1-(3-fluoro(2-pyridyl))cyclobutyl]methyl}ami-no)pyridazin-3-yl]phenyl}-N,N-dimethylcarboxamide], the “Mean AC1.4” value is listed as “B (B=1-10 uM)”.

For the compound `CN1CC(NC(=O)c2ccc(F)c(-c3ccc(NC[C@]4(c5ncccc5F)C[C@H](F)C4)nn3)c2)C1` [{4-fluoro-3-[6-({[3-fluoro-1-(3-fluoro(2-pyridyl))cyclobutyl]methyl}ami-no)pyridazin-3-yl]phenyl}-N-(1-methylazetidin-3-yl)carboxamide], the “Mean AC1.4” value was “B (B=1-10 uM)”. With `O=C(NCC(F)(F)F)c1ccc(F)c(-c2ccc(NC[C@]3(c4ncccc4F)C[C@H](F)C3)nn2)c1` [{4-fluoro-3-[6-({[3-fluoro-1-(3-fluoro(2-pyridyl))cyclobutyl]methyl}ami-no)pyridazin-3-yl]phenyl}-N-(2,2,2-trifluoroethyl)carboxamide], the “Mean AC1.4” value was “B (B=1-10 uM)”. For the compound `CNC(=O)c1ccc(F)c(-c2ccc(NCC3(c4ncccc4F)CCC3)nn2)c1` [{4-fluoro-3-[6-({[(3-fluoro(2-pyridyl))cyclobutyl]methyl}ami-no)pyridazin-3-yl]phenyl}-N-methylcarboxamide], the “Mean AC1.4” value is “A (A=<1 uM)”. For the compound `CNC(=O)c1cc(-c2ccc(NC[C@]3(c4ncccc4F)C[C@H](F)C3)nn2)c(F)cc1O` [{4-fluoro-5-[6-({[3-fluoro-1-(3-fluoro(2-pyridyl))cyclobutyl]methyl}ami-no)pyridazin-3-yl]-2-hydroxyphenyl}-N-methylcarboxamide], the “Mean AC1.4” value is “A (A=<1 uM)”. In the case of `CN(C)C(=O)c1cc(-c2ccc(NC[C@]3(c4ncccc4F)C[C@H](F)C3)nn2)ccc1O` [{5-[6-({[3-fluoro-1-(3-fluoro(2-pyridyl))cyclobutyl]methyl}ami-no)pyridazin-3-yl]-2-hydroxyphenyl}-N,N-dimethylcarboxamide], the “Mean AC1.4” value is reported as “B (B=1-10 uM)”.
